Source: US20190308988A1, “OPIOID RECEPTOR ANTAGONIST PRODRUGS” (Nirsum Laboratories, Inc., priority 2017, published 2019)
≈ marks a conversion by molar mass, not a printed value.

Assay: Solubility determination in oil (Table 10)
Settings: for solubility at 24 h: 25 °C, Obs. Temp. 25 °C; for solubility at 24 h / solubility thermodynamic / solubility: thermodynamic from solid; for solubility thermodynamic / solubility: 40 °C; for solubility thermodynamic: water, Equilibrium solubility: Water
Procedure: A known amount of test substance (˜40 mg) was weighed into the vial, 100 μL of oil was added and heated to 60° C. and then system was slurried to reach equilibrium. […] Extra oil was added into the vial once compound precipitated out and then the system was re-equilibrated at 1000 rpm at room temperature (25° C.). Final concentration was determined by HPLC method as described below in Table 6a and 6b.

[1] = oil or lipid, Approximate Solubility in Excipient: Cottonseed oil, Heating Temp. 60 °C
[2] = oil or lipid, Approximate Solubility in Excipient: Sesame oil, Heating Temp. 60 °C
[3] = Heating Temp. 40 °C, Obs. Temp. 40 °C
[4] = oil or lipid, Approximate Solubility in Excipient: Cottonseed oil, Heating Temp. 60 °C, Obs. Temp. 40 °C
[5] = oil or lipid, Approximate Solubility in Excipient: Sesame oil, Heating Temp. 60 °C, Obs. Temp. 40 °C
[6] = Heating Temp. 60 °C, Obs. Temp. 40 °C
[7] = oil or lipid, Approximate Solubility in Excipient: Cottonseed oil, Heating Temp. 40 °C, Obs. Temp. 40 °C
[8] = oil or lipid, Approximate Solubility in Excipient: Sesame oil, Heating Temp. 40 °C, Obs. Temp. 40 °C
[9] = organic solvent or mixture, Approximate Solubility in Excipient: Ethanol, Heating Temp. 40 °C, Obs. Temp. 40 °C
[10] = oil or lipid, Approximate Solubility in Excipient: Castor oil, Heating Temp. 40 °C, Obs. Temp. 40 °C

Row | Structure (SMILES) | solubility at 24 h [1] [mg/mL] | solubility at 24 h [2] [mg/mL] | solubility thermodynamic [3] [mg/mL] | solubility [7] [mg/mL] | solubility [8] [mg/mL] | solubility [9] [mg/mL] | further results
1 | CCCCCCCCCCCCCCCCCCCCCC(=O)Oc1ccc2c3c1O[C@H]1C(=O)CC[C@@]4(O)C(C2)N(CC2CC2)CC[C@]314 [Compound 51, (4aS,7aR,12bS)-3-(cyclopropylmethyl)-4a-hydroxy-7-oxo-2,3,4,4a,5,6,7,7a-octahydro-1H-4,12-methanobenzofuro[3,2-e]isoquinolin-9-yl docosanoate] | < 50 | < 46 | < 0.001 | – | – | – | –
2 | CCCCCCCCCCCCCC(=O)Oc1ccc2c3c1O[C@H]1C(=O)CC[C@@]4(O)C(C2)N(CC2CC2)CC[C@]314 [Compound 57, (4aS,7aR,12bS)-3-(cyclopropylmethyl)-4a-hydroxy-7-oxo-2,3,4,4a,5,6,7,7a-octahydro-1H-4,12-methanobenzofuro[3,2-e]isoquinolin-9-yl tetradecanoate] | > 424 | > 417 | < 0.001 | – | – | – | –
3 | CCCCCCCC/C=C\CCCCCCCCCCCC(=O)Oc1ccc2c3c1O[C@H]1C(=O)CC[C@@]4(O)C(C2)N(CC2CC2)CC[C@]314 [Compound 22, (4aS,7aR,12bS)-3-(cyclopropylmethyl)-4a-hydroxy-7-oxo-2,3,4,4a,5,6,7,7a-octahydro-1H-4,12-methanobenzofuro[3,2-e]isoquinolin-9-yl (Z)-docos-13-enoate] | 67 to 80 (≈ 101 to 121 mM) | 67 to 80 (≈ 101 to 121 mM) | – | – | – | – | solubility [4]: > 406 mg/mL; solubility [5]: > 402 mg/mL; solubility (organic solvent or mixture, Approximate Solubility in Excipient: Ethanol, Heating Temp. 60 °C, Obs. Temp. 40 °C): > 398 mg/mL; solubility thermodynamic [6]: 0.0314 mg/mL (≈ 0.0474 mM)
4 | CCCCCCCCCCCC(=O)OCOc1ccc2c3c1O[C@H]1C(=O)CC[C@@]4(O)C(C2)N(CC2CC2)CC[C@]314 [Compound 48, (((4aS,7aR,12bS)-3-(cyclopropylmethyl)-4a-hydroxy-7-oxo-2,3,4,4a,5,6,7,7a-octahydro-1H-4,12-methanobenzofuro[3,2-e]isoquinolin-9-yl)oxy)methyl dodecanoate] | > 410 | > 405 | 0.003 (≈ 0.00542 mM) | – | – | – | –
5 | C=C1CC[C@@]2(O)C3Cc4ccc(OC(=O)OCCCCCCCCCCCCCCCCCC)c5c4[C@@]2(CCN3CC2CC2)[C@H]1O5 [Compound 33, (4aS,7aS,12bS)-3-(cyclopropylmethyl)-4a-hydroxy-7-methylene-2,3,4,4a,5,6,7,7a-octahydro-1H-4,12-methanobenzofuro[3,2-e]isoquinolin-9-yl octadecyl carbonate] | < 50 | < 51 | < 0.001 | – | – | – | –
6 | O=C(CCC1CCCC1)Oc1ccc2c3c1O[C@H]1C(=O)CC[C@@]4(O)C(C2)N(CC2CC2)CC[C@]314 [Compound 43, (4aS,7aR,12bS)-3-(cyclopropylmethyl)-4a-hydroxy-7-oxo-2,3,4,4a,5,6,7,7a-octahydro-1H-4,12-methanobenzofuro[3,2-e]isoquinolin-9-yl 3-cyclopentylpropanoate] | – | – | 0.05 (≈ 0.107 mM) | < 50 | < 50 | > 257 | solubility [4]: 140 to 210 mg/mL (≈ 301 to 451 mM); solubility [5]: 133 to 199 mg/mL (≈ 286 to 427 mM); Equilibrium solubility: Water [3]: 0.048 mg/mL
7 | C=C1CC[C@@]2(O)[C@H]3Cc4ccc(O)c5c4[C@@]2(CCN3CC2CC2)[C@H]1O5 [61 (Nalmefene)] | – | – | – | – | – | – | Approximate Solubility in Excipient: Cottonseed oil [6]: <25.0 mg/mL; Approximate Solubility in Excipient: Ethanol [6]: 102 to 137 mg/mL; Approximate Solubility in Excipient: Sesame oil [6]: <25.5 mg/mL; Equilibrium solubility: Water [6]: 0.025 mg/mL
8 | C=C1CC[C@@]2(O)C3Cc4ccc(OC(=O)CCCCCCCCCCCCCCCCC)c5c4[C@@]2(CCN3CC2CC2)[C@H]1O5 [Compound 12, (4aS,7aS,12bS)-3-(cyclopropylmethyl)-4a-hydroxy-7-methylene-2,3,4,4a,5,6,7,7a-octahydro-1H-4,12-methanobenzofuro[3,2-e]isoquinolin-9-yl stearate] | < 51 | < 50 | 0.043 (≈ 0.071 mM) | 100 to 120 (≈ 165 to 198 mM) | 70 to 95 (≈ 116 to 157 mM) | 65 to 75 (≈ 107 to 124 mM) | solubility [4]: > 398 mg/mL; solubility [5]: > 411 mg/mL
9 | C=C1CC[C@@]2(O)C3Cc4ccc(OC(=O)CC(C)(C)C)c5c4[C@@]2(CCN3CC2CC2)[C@H]1O5 [Compound 38, (4aS,7aS,12bS)-3-(cyclopropylmethyl)-4a-hydroxy-7-methylene-2,3,4,4a,5,6,7,7a-octahydro-1H-4,12-methanobenzofuro[3,2-e]isoquinolin-9-yl 3,3-dimethylbutanoate] | – | – | 0.617 (≈ 1.41 mM) | > 407 | 230 to 411 (≈ 526 to 939 mM) | 160 to 200 (≈ 366 to 457 mM) | solubility [10]: > 248 mg/mL; solubility thermodynamic [6]: 0.21 mg/mL (≈ 0.48 mM)
10 | C=C1CC[C@@]2(O)C3Cc4ccc(OC(=O)OCCCCCCCC)c5c4[C@@]2(CCN3CC2CC2)[C@H]1O5 [Compound 17, (4aS,7aS,12bS)-3-(cyclopropylmethyl)-4a-hydroxy-7-methylene-2,3,4,4a,5,6,7,7a-octahydro-1H-4,12-methanobenzofuro[3,2-e]isoquinolin-9-yl octyl carbonate] | > 408 | > 487 | 0.0008 (≈ 0.00161 mM) | > 416 | > 416 | > 209 | –
11 | C=C1CC[C@@]2(O)C3Cc4ccc(OC(=O)CCC5CCCC5)c5c4[C@@]2(CCN3CC2CC2)[C@H]1O5 [Compound 39, (4aS,7aS,12bS)-3-(cyclopropylmethyl)-4a-hydroxy-7-methylene-2,3,4,4a,5,6,7,7a-octahydro-1H-4,12-methanobenzofuro[3,2-e]isoquinolin-9-yl 3-cyclopentylpropanoate] | 104 to 139 (≈ 224 to 300 mM) | 106 to 141 (≈ 229 to 304 mM) | 0.018 (≈ 0.0388 mM) | 225 to 402 (≈ 485 to 868 mM) | > 400 | 150 to 200 (≈ 324 to 431 mM) | solubility [10]: > 218 mg/mL
12 | C=C1CC[C@@]2(O)C3Cc4ccc(OC(=O)CCCCCCC/C=C\CCCCCCCC)c5c4[C@@]2(CCN3CC2CC2)[C@H]1O5 [Compound 36, (4aS,7aS,12bS)-3-(cyclopropylmethyl)-4a-hydroxy-7-methylene-2,3,4,4a,5,6,7,7a-octahydro-1H-4,12-methanobenzofuro[3,2-e]isoquinolin-9-yl oleate] | > 407 | > 408 | 0.005 (≈ 0.00828 mM) | > 419 | > 412 | 20 to 30 (≈ 33.1 to 49.7 mM) | solubility [10]: > 217 mg/mL
13 | CCCCCCCCCCCCCCOC(=O)OCOc1ccc2c3c1O[C@H]1C(=O)CC[C@@]4(O)C(C2)N(CC2CC2)CC[C@]314 [Compound 27, (((4aS,7aR,12bS)-3-(cyclopropylmethyl)-4a-hydroxy-7-oxo-2,3,4,4a,5,6,7,7a-octahydro-1H-4,12-methanobenzofuro[3,2-e]isoquinolin-9-yl)oxy)methyl tetradecyl carbonate] | > 395 | > 399 | < 0.001 | – | – | – | –
14 | CCCCCCCCCCCCCCCCCC(=O)Oc1ccc2c3c1O[C@H]1C(=O)CC[C@@]4(O)C(C2)N(CC2CC2)CC[C@]314 [Compound 54, (4aS,7aR,12bS)-3-(cyclopropylmethyl)-4a-hydroxy-7-oxo-2,3,4,4a,5,6,7,7a-octahydro-1H-4,12-methanobenzofuro[3,2-e]isoquinolin-9-yl stearate] | < 51 | < 50 | < 0.001 | – | – | – | –
15 | CCCCCCCCCCCCCCCC(=O)OCOc1ccc2c3c1O[C@H]1C(=O)CC[C@@]4(O)C(C2)N(CC2CC2)CC[C@]314 [Compound 49, (((4aS,7aR,12bS)-3-(cyclopropylmethyl)-4a-hydroxy-7-oxo-2,3,4,4a,5,6,7,7a-octahydro-1H-4,12-methanobenzofuro[3,2-e]isoquinolin-9-yl)oxy)methyl hexadecanoate] | < 50 | < 51 | 0.028 (≈ 0.0459 mM) | – | – | – | –
16 | CC(C)(C)CC(=O)Oc1ccc2c3c1O[C@H]1C(=O)CC[C@@]4(O)C(C2)N(CC2CC2)CC[C@]314 [Compound 42, (4aS,7aR,12bS)-3-(cyclopropylmethyl)-4a-hydroxy-7-oxo-2,3,4,4a,5,6,7,7a-octahydro-1H-4,12-methanobenzofuro[3,2-e]isoquinolin-9-yl 3,3-dimethylbutanoate] | – | – | 0.245 (≈ 0.557 mM) | < 51 | < 52 | 78 to 93 (≈ 177 to 212 mM) | solubility [4]: < 26 mg/mL; solubility [5]: < 25.8 mg/mL; solubility thermodynamic [6]: 0.068 mg/mL (≈ 0.155 mM)
17 | CCCCCCCC/C=C/CCCCCCCC(=O)OCOc1ccc2c3c1O[C@H]1C(=O)CC[C@@]4(O)C(C2)N(CC2CC2)CC[C@]314 [Compound 26, (((4aS,7aR,12bS)-3-(cyclopropylmethyl)-4a-hydroxy-7-oxo-2,3,4,4a,5,6,7,7a-octahydro-1H-4,12-methanobenzofuro[3,2-e]isoquinolin-9-yl)oxy)methyl (E)-octadec-9-enoate] | 204 to 239 (≈ 321 to 376 mM) | < 354 | < 0.001 | – | – | – | –
